Experimental data from US6340689B1 (priority 1999, dated 2002).
In brackets after ≈: the same amount, converted by molar mass.

Tests used:
[1] = test system: L. pneumophila serogroup 1; test: microbe, parasite or virus in culture; format: cell-based, Legionella pneumophila; settings: Legionella pneumophila; for MIC: 48 h, read-out: MIC Range; for MIC90: L. pneumophila serogroup 1 (n = 85)
[2] = test system: L. pneumophila serogroup 2; test: microbe, parasite or virus in culture; format: cell-based; settings: Legionella pneumophila; for MIC: 48 h, read-out: MIC Range
[3] = test system: L. pneumophila serogroup 3; test: microbe, parasite or virus in culture; format: cell-based; settings: Legionella pneumophila; for MIC: 48 h, read-out: MIC Range
[4] = test system: L. pneumophila serogroup 4; test: microbe, parasite or virus in culture; format: cell-based; settings: Legionella pneumophila; for MIC: 48 h, read-out: MIC Range
[5] = test system: L. pneumophila serogroup 5; test: microbe, parasite or virus in culture; format: cell-based; settings: Legionella pneumophila; for MIC: 48 h, read-out: MIC Range
[6] = test system: L. pneumophila serogroup 6; test: microbe, parasite or virus in culture; format: cell-based; settings: Legionella pneumophila; for MIC: 48 h, read-out: MIC Range
[7] = test system: L. pneumophila serogroup 7; test: microbe, parasite or virus in culture; format: cell-based; settings: Legionella pneumophila; for MIC: 48 h, read-out: MIC Range
[8] = test system: L. pneumophila serogroup 8, 9; test: microbe, parasite or virus in culture; format: cell-based; settings: Legionella pneumophila; for MIC: 48 h, read-out: MIC Range
[9] = test system: L. dumoffii; test: organism not typed; format: cell-based; settings: for MIC: 48 h, read-out: MIC Range
[10] = test system: L. micadadei; test: organism not typed; format: cell-based, L. micdadei; settings: for MIC: 48 h, read-out: MIC Range
[11] = test system: L. longbeacheae; test: organism not typed; format: cell-based; settings: for MIC: 48 h, read-out: MIC Range
[12] = test system: Other Legionella spp.; test: microbe, parasite or virus in culture; format: cell-based; settings: for MIC: 48 h, read-out: MIC Range
[13] = test system: Erythromycin-susceptible L. pneumophila; format: cell-based, Legionella pneumophila; settings: Erythromycin-susceptible L. pneumophila (n = 15); 4 × MIC; mean ± SD
[14] = test system: Erythromycin-susceptible Legionella spp. other than L. pneumophila; format: cell-based; settings: Erythromycin-susceptible Legionella spp. (n = 13); 4 × MIC; mean ± SD
[15] = test system: isolates of Legionella pneumophila and other Legionella spp.; test: microbe, parasite or virus in culture; format: cell-based

Row | Structure (SMILES) | MIC50 [1] | MIC [1] | MIC90 [1] | MIC50 [2] | MIC90 [2] | MIC [2] | MIC50 [3] | MIC90 [3] | MIC [3] | MIC50 [4] | MIC90 [4] | MIC [4] | MIC50 [5] | MIC90 [5] | MIC [5] | MIC50 [6] | MIC90 [6] | MIC [6] | MIC50 [7] | MIC90 [7] | further results
1 | CO[C@H]1/C=C/O[C@@]2(C)Oc3c(C)c(O)c4c(O)c(c(/C=N/N5CCN(C)CC5)c(O)c4c3C2=O)NC(=O)/C(C)=C\C=C\[C@H](C)[C@H](O)[C@@H](C)[C@@H](O)[C@@H](C)[C@H](OC(C)=O)[C@@H]1C [Rifampicin] | ≤ 4 ng/mL | 4 to 8 ng/mL (≈ 4.86 to 9.72 nM) | 8 ng/mL (≈ 9.72 nM) | ≤ 4 ng/mL | ≤ 4 ng/mL | ≤ 4 ng/mL | ≤ 4 ng/mL | ≤ 4 ng/mL | ≤ 4 ng/mL | ≤ 4 ng/mL | ≤ 4 ng/mL | 4 to 8 ng/mL (≈ 4.86 to 9.72 nM) | ≤ 4 ng/mL | ≤ 4 ng/mL | ≤ 4 ng/mL | ≤ 4 ng/mL | ≤ 4 ng/mL | 4 to 8 ng/mL (≈ 4.86 to 9.72 nM) | ≤ 4 ng/mL | ≤ 4 ng/mL | MIC [7]: ≤ 4 ng/mL; MIC50 [8]: ≤ 4 ng/mL; MIC90 [8]: ≤ 4 ng/mL; MIC [8]: ≤ 4 ng/mL; MIC50 [9]: 8 ng/mL (≈ 9.72 nM); MIC90 [9]: 16 ng/mL (≈ 19.4 nM); MIC [9]: 4 to 30 ng/mL (≈ 4.86 to 36.5 nM); MIC50 [10]: 8 ng/mL (≈ 9.72 nM); MIC90 [10]: 8 ng/mL (≈ 9.72 nM); MIC [10]: 8 ng/mL (≈ 9.72 nM); MIC50 [11]: ≤ 4 ng/mL; MIC90 [11]: 60 ng/mL (≈ 72.9 nM); MIC [11]: 4 to 60 ng/mL (≈ 4.86 to 72.9 nM); MIC50 [12]: ≤ 4 ng/mL; MIC90 [12]: 8 ng/mL (≈ 9.72 nM); MIC [12]: 4 to 8 ng/mL (≈ 4.86 to 9.72 nM); Mean PAE [13]: 2.86 ± 5 h; Mean PAE [14]: 3.09 ± 4 h; MIC90 [15]: ≤ 8 ng/mL
2 | N[C@@H]1[C@H]2CN(c3nc4c(cc3F)c(=O)c(C(=O)O)cn4-c3ccc(F)cc3F)C[C@@H]12 [Trovafloxacin] | ≤ 4 ng/mL | 4 to 16 ng/mL (≈ 9.61 to 38.4 nM) | ≤ 4 ng/mL | ≤ 4 ng/mL | ≤ 4 ng/mL | ≤ 4 ng/mL | ≤ 4 ng/mL | ≤ 4 ng/mL | ≤ 4 ng/mL | ≤ 4 ng/mL | ≤ 4 ng/mL | ≤ 4 ng/mL | ≤ 4 ng/mL | ≤ 4 ng/mL | 4 to 8 ng/mL (≈ 9.61 to 19.2 nM) | ≤ 4 ng/mL | ≤ 4 ng/mL | ≤ 4 ng/mL | ≤ 4 ng/mL | ≤ 4 ng/mL | MIC [7]: ≤ 4 ng/mL; MIC50 [8]: ≤ 4 ng/mL; MIC90 [8]: ≤ 4 ng/mL; MIC [8]: ≤ 4 ng/mL; MIC50 [9]: 8 ng/mL (≈ 19.2 nM); MIC90 [9]: 8 ng/mL (≈ 19.2 nM); MIC [9]: 4 to 8 ng/mL (≈ 9.61 to 19.2 nM); MIC50 [10]: ≤ 4 ng/mL; MIC90 [10]: ≤ 4 ng/mL; MIC [10]: ≤ 4 ng/mL; MIC50 [11]: ≤ 4 ng/mL; MIC90 [11]: ≤ 4 ng/mL; MIC [11]: ≤ 4 ng/mL; MIC50 [12]: ≤ 4 ng/mL; MIC90 [12]: ≤ 4 ng/mL; MIC [12]: ≤ 4 ng/mL; Mean PAE [13]: 1.71 ± 1 h; Mean PAE [14]: 1.22 ± 1 h; MIC90 [15]: ≤ 8 ng/mL
